Test results from ChEMBL document CHEMBL1201862, “PubChem BioAssay data set” (2004).
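Five compound concentrations were applied to cells in 96-well plates for 48 hours; endpoints were derived by simple linear interpolation of the resulting dose-response curve. Here, GI50 denotes the concentration required for 50% inhibition of growth.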 The source made the active and inactive calls. No stated cut-off is given here; in the data, active = GI50 up to about 1.1 µM and inactive = higher. Where a SMILES comes first, the peptide text is derived from it. The star is where a group is joined. Cbz = O=C(OCc1ccccc1)*

Legend:
Assay in all cases: inhibition of tumour cell growth, NCI panel, 48 h
MDA-MB-435 = tested on: MDA-MB-435
SN12C = tested on: SN12C
K562 = tested on: K562
CCRF-CEM = tested on: CCRF-CEM
BT-549 = tested on: BT-549
TK-10 = tested on: TK-10
SW-620 = tested on: SW-620
IGROV-1 = tested on: IGROV-1
T47D = tested on: T47D
HCT-15 = tested on: HCT-15
NCI/ADR-RES = tested on: NCI/ADR-RES
OVCAR-8 = tested on: OVCAR-8
SF-268 = tested on: SF-268
SK-MEL-5 = tested on: SK-MEL-5
MOLT-4 = tested on: MOLT-4
SK-MEL-2 = tested on: SK-MEL-2
A549 = tested on: A549
NCI-H522 = tested on: NCI-H522
HOP-92 = tested on: HOP-92

Structure (SMILES) | GI50 (MDA-MB-435) | GI50 (SN12C) | GI50 (K562) | GI50 (CCRF-CEM) | GI50 (BT-549) | GI50 (TK-10) | GI50 (SW-620) | GI50 (IGROV-1) | GI50 (T47D) | GI50 (HCT-15) | GI50 (NCI/ADR-RES) | GI50 (OVCAR-8) | GI50 (SF-268) | GI50 (SK-MEL-5) | GI50 (MOLT-4) | GI50 (SK-MEL-2) | GI50 (A549) | GI50 (NCI-H522) | GI50 (HOP-92)
N#CC(c1ccccc1)N(CCOCCOCCN(C(=O)c1cccc2ccccc12)C(C#N)c1ccccc1)C(=O)c1cccc2ccccc12 (stereo not drawn) | > 100 µM (inactive) | > 100 µM (inactive) | 42.4 µM (inactive) | > 100 µM (inactive) | > 100 µM (inactive) | > 100 µM (inactive) | > 100 µM (inactive) | > 100 µM (inactive) | 4.1 µM (inactive) | > 100 µM | > 100 µM (inactive) | > 100 µM (inactive) | > 100 µM (inactive) | > 100 µM (inactive) | 8.15 µM (inactive) | > 100 µM (inactive) | 17.5 µM (inactive) | – | –
C[C@]12CCC(=O)O[C@H]1CCCCO2 | > 100 µM (inactive) | > 100 µM (inactive) | > 100 µM (inactive) | > 100 µM (inactive) | – | > 100 µM (inactive) | > 100 µM (inactive) | > 100 µM (inactive) | > 100 µM (inactive) | > 100 µM | > 100 µM (inactive) | > 100 µM (inactive) | > 100 µM (inactive) | > 100 µM (inactive) | > 100 µM (inactive) | > 100 µM (inactive) | > 100 µM (inactive) | > 100 µM (inactive) | 28.1 µM (inactive)
O=[N+]([O-])C(/C(Cl)=C(/Cl)N1CCCCC1)=C1\NCCO1 | > 100 µM (inactive) | > 100 µM (inactive) | – | > 100 µM (inactive) | > 100 µM (inactive) | – | > 100 µM (inactive) | – | > 100 µM (inactive) | > 100 µM | > 100 µM (inactive) | > 100 µM (inactive) | > 100 µM (inactive) | – | > 100 µM (inactive) | > 100 µM (inactive) | > 100 µM (inactive) | – | –
C#CCN(C(=O)C(F)(F)F)C(/C=C\C(=O)OC)(C(=O)OCC)C(=O)OCC | > 100 µM (inactive) | > 100 µM (inactive) | > 100 µM (inactive) | > 100 µM (inactive) | > 100 µM (inactive) | > 100 µM (inactive) | > 100 µM (inactive) | > 100 µM (inactive) | > 100 µM (inactive) | > 100 µM | > 100 µM (inactive) | > 100 µM (inactive) | > 100 µM (inactive) | > 100 µM (inactive) | > 100 µM (inactive) | > 100 µM (inactive) | > 100 µM (inactive) | > 100 µM (inactive) | –
COc1ccc(OCC(=O)O)c2c1CCCC2=O | – | > 100 µM (inactive) | > 100 µM (inactive) | > 100 µM (inactive) | – | > 100 µM (inactive) | > 100 µM (inactive) | > 100 µM (inactive) | – | > 100 µM | – | > 100 µM (inactive) | > 100 µM (inactive) | > 100 µM (inactive) | > 100 µM (inactive) | > 100 µM (inactive) | > 100 µM (inactive) | > 100 µM (inactive) | > 100 µM (inactive)
CCOC(=O)/C(=C\n1c(=O)sc2ccccc21)C(=O)c1ccccc1 | > 100 µM (inactive) | > 100 µM (inactive) | 44.3 µM (inactive) | > 100 µM (inactive) | – | – | > 100 µM (inactive) | 20 µM (inactive) | 22.4 µM (inactive) | > 100 µM | > 100 µM (inactive) | > 100 µM (inactive) | > 100 µM (inactive) | 54.2 µM (inactive) | > 100 µM (inactive) | > 100 µM (inactive) | > 100 µM (inactive) | 48 µM (inactive) | –
Cc1ccc(S(=O)(=O)N(CC(O)COc2ccccc2)c2c(F)cccc2F)cc1 (stereo not drawn) | 15.4 µM (inactive) | 21.1 µM (inactive) | 37.3 µM (inactive) | 28.7 µM (inactive) | – | 33.7 µM (inactive) | 23 µM (inactive) | – | 2.21 µM (inactive) | 16.1 µM | 17.5 µM (inactive) | 17 µM (inactive) | 17.1 µM (inactive) | 13.8 µM (inactive) | 28.3 µM (inactive) | 16.6 µM (inactive) | 17.3 µM (inactive) | – | 0.114 µM (active)
[O-][S+](CC1(O)CCCCC1)c1ccccc1 (stereo not drawn) | – | > 100 µM (inactive) | > 100 µM (inactive) | > 100 µM (inactive) | > 100 µM (inactive) | > 100 µM (inactive) | > 100 µM (inactive) | > 100 µM (inactive) | > 100 µM (inactive) | > 100 µM | > 100 µM (inactive) | > 100 µM (inactive) | > 100 µM (inactive) | > 100 µM (inactive) | > 100 µM (inactive) | > 100 µM (inactive) | > 100 µM (inactive) | > 100 µM (inactive) | –
CCC1(CC)C(=O)N(C(=O)c2ccccc2)N(C(=O)c2ccc(Cl)cc2)C1=O | > 75 µM (inactive) | > 75 µM (inactive) | 32.9 µM (inactive) | 12.7 µM (inactive) | > 75 µM (inactive) | > 75 µM (inactive) | 36.2 µM (inactive) | > 75 µM (inactive) | > 75 µM (inactive) | 72.3 µM | > 75 µM (inactive) | > 75 µM (inactive) | > 75 µM (inactive) | > 75 µM (inactive) | 17 µM (inactive) | > 75 µM (inactive) | > 75 µM (inactive) | 25.4 µM (inactive) | –
COC(=O)CCc1ccc2c(c1)C(=O)CC2 | > 100 µM (inactive) | – | > 100 µM (inactive) | > 100 µM (inactive) | – | > 100 µM (inactive) | > 100 µM (inactive) | > 100 µM (inactive) | > 100 µM (inactive) | > 100 µM | > 100 µM (inactive) | > 100 µM (inactive) | > 100 µM (inactive) | > 100 µM (inactive) | > 100 µM (inactive) | > 100 µM (inactive) | > 100 µM (inactive) | > 100 µM (inactive) | > 100 µM (inactive)
N#C[C@H]1C(=O)C(c2nc3ccccc3[nH]2)S[C@H]1c1ccccc1 (stereo partly drawn) | 35 µM (inactive) | 20 µM (inactive) | 35.2 µM (inactive) | 38.4 µM (inactive) | 26.5 µM (inactive) | 95.9 µM (inactive) | 32.5 µM (inactive) | 26.9 µM (inactive) | – | 38 µM | 30.9 µM (inactive) | 43.2 µM (inactive) | – | 25.2 µM (inactive) | 33.7 µM (inactive) | – | 45.4 µM (inactive) | 21.2 µM (inactive) | 25.5 µM (inactive)
OC(CCNCc1ccccc1)c1ccc2ccccc2c1 (stereo not drawn) | 23 µM (inactive) | 29.1 µM (inactive) | 21.6 µM (inactive) | 1.68 µM (inactive) | – | 18.3 µM (inactive) | 19.7 µM (inactive) | 16 µM (inactive) | 24 µM (inactive) | 20.5 µM | 24.7 µM (inactive) | 23.3 µM (inactive) | 18.9 µM (inactive) | 17.2 µM (inactive) | 31.1 µM (inactive) | 20.5 µM (inactive) | 19 µM (inactive) | 18.7 µM (inactive) | –
O=c1oc2c/c(=C\c3ccccn3)c(=O)c3cccc1c3-2 | > 100 µM (inactive) | 95.5 µM (inactive) | > 100 µM (inactive) | 33.8 µM (inactive) | – | 66.8 µM (inactive) | > 100 µM (inactive) | 90.8 µM (inactive) | 38.1 µM (inactive) | > 100 µM | 52.7 µM (inactive) | 16.5 µM (inactive) | 30.8 µM (inactive) | > 100 µM (inactive) | 49.3 µM (inactive) | – | – | 16.1 µM (inactive) | > 100 µM (inactive)
C/C=C1\CC(C(=O)OCC)CCCCCCCCCCC1=O (stereo not drawn) | 17.5 µM (inactive) | 26.6 µM (inactive) | – | 37 µM (inactive) | 82.8 µM (inactive) | > 100 µM (inactive) | 38.5 µM (inactive) | 31.8 µM (inactive) | 26.7 µM (inactive) | 34.6 µM | 34.7 µM (inactive) | 43.3 µM (inactive) | 53.5 µM (inactive) | 29.2 µM (inactive) | 29 µM (inactive) | 36.1 µM (inactive) | 51.3 µM (inactive) | 25.5 µM (inactive) | –
CC(=O)OCC1OC(Nc2ccc3nc(C)n(-c4cccc(C)c4)c(=O)c3c2)C(OC(C)=O)C(OC(C)=O)C1OC(C)=O (stereo not drawn) | > 62.5 µM (inactive) | > 62.5 µM (inactive) | > 62.5 µM (inactive) | – | > 62.5 µM (inactive) | > 62.5 µM (inactive) | > 62.5 µM (inactive) | > 62.5 µM (inactive) | > 62.5 µM (inactive) | > 62.5 µM | > 62.5 µM (inactive) | > 62.5 µM (inactive) | > 62.5 µM (inactive) | > 62.5 µM (inactive) | > 62.5 µM (inactive) | > 62.5 µM (inactive) | – | > 62.5 µM (inactive) | –
CCOC(=O)CCC(NC(=O)C(CC(=O)OC)NC(=O)OCc1ccccc1)C(=O)NC(CC(=O)OC)C(=O)NC(CCC(=O)OCC)C(=O)NC(CC(=O)OC)C(=O)NC(CCC(=O)OCC)C(=O)NC(CC(=O)OCC)C(=O)OCC (stereo not drawn) (Cbz-D(OMe)E(OEt)D(OMe)E(OEt)D(OMe)E(OEt)D(OEt)-OEt; configuration not given here) | > 100 µM (inactive) | > 100 µM (inactive) | > 100 µM (inactive) | > 100 µM (inactive) | > 100 µM (inactive) | > 100 µM (inactive) | > 100 µM (inactive) | > 100 µM (inactive) | > 100 µM (inactive) | > 100 µM | – | > 100 µM (inactive) | – | > 100 µM (inactive) | > 100 µM (inactive) | > 100 µM (inactive) | > 100 µM (inactive) | > 100 µM (inactive) | –
